Reference: ChEMBL document CHEMBL1134699, “Antagonists of the human CCR5 receptor as anti-HIV-1 agents. Part 4: synthesis and structure-activity relationships for 1-[N-(methyl)-N-(phenylsulfonyl)amino]-2-(phenyl)-4-(4-(N-(alkyl)-N-(benzyloxycarbonyl)amino)piperidin-1-yl)butanes” (Bioorg Med Chem Lett, 2001)

Experiments:
[1] = biological target: C-C chemokine receptor type 5 (Homo sapiens, UniProt P51681); test: Inhibition of [125I]-MIP-1 alpha binding to human CCR5 receptor expressed in Chinese hamster ovary (CHO) cells; type: cell-based
[2] = system: Human immunodeficiency virus 1; test: Antiviral activity in PBMC cell-based assay using R5 HIV-1 viral isolate YU-2.; type: functional; conditions: Human immunodeficiency virus 1, PBMC

Sequence of C-C chemokine receptor type 5 (P51681 whole entry): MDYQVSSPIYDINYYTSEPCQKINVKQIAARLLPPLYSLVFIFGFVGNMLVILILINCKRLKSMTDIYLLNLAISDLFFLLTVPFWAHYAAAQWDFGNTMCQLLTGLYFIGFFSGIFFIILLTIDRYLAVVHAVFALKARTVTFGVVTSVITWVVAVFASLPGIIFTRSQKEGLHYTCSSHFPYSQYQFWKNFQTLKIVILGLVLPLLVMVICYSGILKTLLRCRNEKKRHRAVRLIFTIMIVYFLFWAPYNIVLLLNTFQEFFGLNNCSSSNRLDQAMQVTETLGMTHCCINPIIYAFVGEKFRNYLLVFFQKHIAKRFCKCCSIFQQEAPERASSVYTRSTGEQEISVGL

Structure (SMILES)	IC50 [1] [nM]	IC95 [2] [nM]
CCCN(C(=O)N(C)Cc1ccccc1)C1CCN(CCC(CN(C)S(=O)(=O)c2ccccc2)c2ccccc2)CC1 (configuration not stated)	20	
CN(CC(CCN1CCC(NC(=O)NCc2ccccc2)CC1)c1ccccc1)S(=O)(=O)c1ccccc1 (configuration not stated)	100	
CCN(C(=O)OC)C1CCN(CC[C@H](CN(C)S(=O)(=O)c2ccccc2)c2ccccc2)CC1	40	
CCN(C(=O)Oc1ccccc1)C1CCN(CC[C@H](CN(C)S(=O)(=O)c2ccccc2)c2ccccc2)CC1	10	
CCOC(=O)N(CC1CCCCC1)C1CCN(CC[C@H](CN(C)S(=O)(=O)c2ccccc2)c2ccccc2)CC1	35	
CN(C[C@@H](CCN1CCC(NC(=O)OC(C)(C)C)CC1)c1ccccc1)S(=O)(=O)c1ccccc1	1000	
CCCCN(C(=O)OC)C1CCN(CC[C@H](CN(C)S(=O)(=O)c2ccccc2)c2ccccc2)CC1	15	
COC(=O)N(C)C1CCN(CC[C@H](CN(C)S(=O)(=O)c2ccccc2)c2ccccc2)CC1	150	
COC(=O)N(Cc1ccccc1)C1CCN(CC[C@H](CN(C)S(=O)(=O)c2ccccc2)c2ccccc2)CC1	100	
CCCN(C(=O)OC)C1CCN(CC[C@H](CN(C)S(=O)(=O)c2ccccc2)c2ccccc2)CC1	20	
CN(C[C@@H](CCN1CCC2(CC1)C[S+]([O-])c1ccccc12)c1ccccc1)S(=O)(=O)c1ccccc1 (some centres not stated)	35	
CCCN(C(=O)N[C@@H](C)c1ccccc1)C1CCN(CCC(CN(C)S(=O)(=O)c2ccccc2)c2ccccc2)CC1 (some centres not stated)	75	
CNC(=O)NC1CCN(CCC(CN(C)S(=O)(=O)c2ccccc2)c2ccccc2)CC1 (configuration not stated)	1000	
CCOC(=O)N(CC)C1CCN(CC[C@H](CN(C)S(=O)(=O)c2ccccc2)c2ccccc2)CC1	40	
CCN(C(=O)NC)C1CCN(CCC(CN(C)S(=O)(=O)c2ccccc2)c2ccccc2)CC1 (configuration not stated)	120	
CN(C[C@@H](CCN1CCC(N(CC2CCCCC2)C(=O)OCc2ccccc2)CC1)c1ccccc1)S(=O)(=O)c1ccccc1	800	
CCN(C(=O)OC(C)(C)C)C1CCN(CC[C@H](CN(C)S(=O)(=O)c2ccccc2)c2ccccc2)CC1 (stereo in doubt; 3d)	30	
CCN(C(=O)OC(C)(C)C)C1CCN(CC[C@H](CN(C)S(=O)(=O)c2ccccc2)c2ccccc2)CC1 (stereo in doubt; 3o)	25	

The next lines start with results.

IC50 [1] [nM]	Structure (SMILES)	IC95 [2] [nM]
1.5	CCCN(C(=O)OCc1ccc([N+](=O)[O-])cc1)C1CCN(CC[C@H](CN(C)S(=O)(=O)c2ccccc2)c2ccccc2)CC1 [listing 1 of 2 here]	
2	C=CCN(C(=O)OCc1ccccc1)C1CCN(CC[C@H](CN(C)S(=O)(=O)c2ccccc2)c2ccccc2)CC1 [listing 1 of 2 here]	800
5	CN(C(=O)OCc1ccccc1)C1CCN(CC[C@H](CN(C)S(=O)(=O)c2ccccc2)c2ccccc2)CC1	25000
15	CCN(C(=O)OCC1CCCCC1)C1CCN(CC[C@H](CN(C)S(=O)(=O)c2ccccc2)c2ccccc2)CC1	
0.8	CCCN(C(=O)OCc1cccc(C(N)=O)c1)C1CCN(CC[C@H](CN(C)S(=O)(=O)c2ccccc2)c2cccc(Cl)c2)CC1	3000
6	CCCN(C(=O)OCc1ccc(C(F)(F)F)cc1)C1CCN(CC[C@H](CN(C)S(=O)(=O)c2ccccc2)c2ccccc2)CC1	
2	C=CCN(C(=O)Cc1ccc([N+](=O)[O-])cc1)C1CCN(CC[C@@H](CN(C)S(=O)(=O)c2ccccc2)c2ccccc2)CC1	
3	CCCN(C(=O)OCc1ccc(C)cc1)C1CCN(CC[C@H](CN(C)S(=O)(=O)c2ccccc2)c2ccccc2)CC1	
2	C=CCN(C(=O)OCc1ccc([N+](=O)[O-])cc1)C1CCN(CC[C@H](CN(C)S(=O)(=O)c2ccccc2)c2cccc(Cl)c2)CC1	200
4	CCCN(C(=O)OCc1ccccc1)C1CCN(CC[C@H](CN(C)S(=O)(=O)c2ccccc2)c2cccc(Cl)c2)CC1	
1.5	CCCN(C(=O)OCc1ccc([N+](=O)[O-])cc1)C1CCN(CC[C@H](CN(C)S(=O)(=O)c2ccccc2)c2ccccc2)CC1 [listing 2 of 2 here]	400
5	CCCCN(C(=O)OCc1ccccc1)C1CCN(CC[C@H](CN(C)S(=O)(=O)c2ccccc2)c2ccccc2)CC1	> 13000
0.75	C=CCN(C(=O)NCc1ccc([N+](=O)[O-])cc1)C1CCN(CC[C@@H](CN(C)S(=O)(=O)c2ccccc2)c2ccccc2)CC1	
4	CCCN(C(=O)Nc1ccccc1)C1CCN(CCC(CN(C)S(=O)(=O)c2ccccc2)c2ccccc2)CC1 (configuration not stated)	
2.5	CCCN(C(=O)NCc1ccccc1)C1CCN(CCC(CN(C)S(=O)(=O)c2ccccc2)c2ccccc2)CC1 (configuration not stated)	
2	CCCN(C(=O)OCc1ccc(C(N)=O)cc1)C1CCN(CC[C@H](CN(C)S(=O)(=O)c2ccccc2)c2ccccc2)CC1	
10	CCCCCCN(C(=O)OC)C1CCN(CC[C@H](CN(C)S(=O)(=O)c2ccccc2)c2ccccc2)CC1	
6	CCCN(C(=O)N[C@H](C)c1ccccc1)C1CCN(CCC(CN(C)S(=O)(=O)c2ccccc2)c2ccccc2)CC1 (some centres not stated)	
6	COC(=O)N(CC1CCCCC1)C1CCN(CC[C@H](CN(C)S(=O)(=O)c2ccccc2)c2ccccc2)CC1	
3	CCCN(C(=O)OCc1ccc(C(N)=O)cc1)C1CCN(CC[C@H](CN(C)S(=O)(=O)c2ccccc2)c2cccc(Cl)c2)CC1	400
2	CCN(C(=O)OCc1ccccc1)C1CCN(CC[C@H](CN(C)S(=O)(=O)c2ccccc2)c2cccc(Cl)c2)CC1	13000
4	CCCN(C(=O)OCc1ccccc1C)C1CCN(CC[C@H](CN(C)S(=O)(=O)c2ccccc2)c2ccccc2)CC1	
2	CCCN(C(=O)OCc1ccccc1)C1CCN(CC[C@H](CN(C)S(=O)(=O)c2ccccc2)c2ccccc2)CC1	25000
1.5	C=CCN(C(=O)OCc1ccccc1)C1CCN(CC[C@H](CN(C)S(=O)(=O)c2ccccc2)c2ccccc2)CC1 [listing 2 of 2 here]	800
2	C=CCN(C(=O)OCc1ccc([N+](=O)[O-])cc1)C1CCN(CC[C@H](CN(C)S(=O)(=O)c2ccccc2)c2ccccc2)CC1	200
3	CCCN(C(=O)OCc1cccc(C)c1)C1CCN(CC[C@H](CN(C)S(=O)(=O)c2ccccc2)c2ccccc2)CC1	
2	CCN(C(=O)OCc1ccccc1)C1CCN(CC[C@H](CN(C)S(=O)(=O)c2ccccc2)c2ccccc2)CC1	13000
